Assay results as given in EP3974434B1, “MACROLIDE DERIVATIVES, PREPARATION METHOD AND APPLICATION THEREOF” (Zhejiang Hisun Pharmaceutical Co., Ltd., priority 2019, dated 2020).
Where two headings read alike, the source gives them in different places.

Tests used:
TRKC = target: T1, TRKC (Homo sapiens, UniProt Q16288); experiment: HTRF KinEASE-TK kinase activity inhibition assay, TRKC; assay type: biochemical; settings: ATP 50 µM
T1 construct: purchased Carna bioscience 08-197
Text: (§1) The following method was used to determine the inhibition degrees of the compounds of the present invention on the activity of recombinant human NTRK family kinase in vitro. In this method, HTRF®KinEASE-TK tyrosine kinase kit (article number: 62TK0PEB) of Cisbio company was used, and the principle of the kit was based on time-resolved fluorescence resonance energy transfer (TF-FRET), and the inhibition of the compounds on the activity of the NTRK kinase was reflected by determining a phosphorylation degree of a biotinylated polypeptide substrate mediated by NTRK kinase. For detailed experimental operation, please refer to the kit instruction. Recombinant human wild-type NTRK proteins were purchased from Carna bioscience (the article numbers were TRKA #08-186, TRKB #08-187 and TRKC #08-197 respectively), and recombinant human mutant NTRK proteins were purchased from SignalChem (the article numbers were TRKA G595R #N16-12BG-10, TRKA G667C # N16-12CG-10, and TRKC G623R # N18-12CH-10 respectively).
(§2) The experimental methods were operated according to the steps in the kit instruction, and were briefly described as follows: a test compound was first dissolved in DMSO to prepare a storage solution, and then diluted in gradient with a buffer provided in the kit. A final concentration of the test compound in the reaction system ranged from 1,000 nM to 0.004 nM. An ATP Km value concentration of each NTRK protein was determined by using an ATP solution diluted in gradient (Sangon Biotech (Shanghai) Co., Ltd., A600311). According to the Km value obtained, the ATP concentrations in the reaction system were set as 100 µM for TRKA, 10 µM for TRKB, 50 µM for TRKC, 7 µM for TRKA(G595R), 1 µM for TRKA(G667C) and 100 µM for TRKC(G623R). The reaction was carried out in a 384-well microplate. Firstly, the compound and a certain amount of corresponding NTRK protein were added to the wells and incubated for 5 minutes to 10 minutes at room temperature. Then, the ATP solution and the biotinylated polypeptide substrate solution were added to the reaction solution and incubated with shaking at room temperature for 60 minutes. Then, an anti-phosphorylated tyrosine antibody coupled with a europium compound and streptavidin coupled with modified allophycocyanin XL665 were added to the reaction, and continuously incubated with shaking at room temperature for 1 hour. After incubation, fluorescence intensity values of each well at an excitation wavelength of 304 nm, and emission wavelengths of 620 nm and 665 nM were determined in a TF-FRET mode on a microplate reader. Compared with the fluorescence intensity ratio of a control group (0.1% DMSO), the percentage inhibition rates of the compound at each concentration were calculated, and the IC50 value of the compound was obtained by performing nonlinear regression analysis for logarithmic value of the compound concentration - inhibition rate by GraphPad Prism 5 software, which can be seen in Table 1. Table 1 IC50 data of the compounds of the present invention on TRK enzyme activity inhibition

TRKB = target: T2, TRKB (Homo sapiens, UniProt Q16620); experiment: HTRF KinEASE-TK kinase activity inhibition assay, TRKB; assay type: biochemical; settings: ATP 10 µM
T2 construct: purchased Carna bioscience 08-187
Text: as §1, §2

TRKA = target: T3, TRKA (Homo sapiens, UniProt P04629); experiment: HTRF KinEASE-TK kinase activity inhibition assay, TRKA; assay type: biochemical; settings: ATP 100 µM
T3 construct: purchased Carna bioscience 08-186
Text: as §1, §2

TRKA(G595R) = target: T4, TRKA(G595R) (Homo sapiens, UniProt P04629, G595R); experiment: HTRF KinEASE-TK kinase activity inhibition assay, TRKA(G595R); assay type: biochemical; settings: ATP 7 µM
T4 construct: purchased SignalChem N16-12BG-10
Text: as §1, §2

TRKA(G667C) = target: T5, TRKA(G667C) (Homo sapiens, UniProt P04629, G667C); experiment: HTRF KinEASE-TK kinase activity inhibition assay, TRKA(G667C); assay type: biochemical; settings: ATP 1 µM
T5 construct: purchased SignalChem N16-12CG-10
Text: as §1, §2

[1] = Pharmacokinetic study on ICR mice (plasma, LC-MS/MS); assay type: in vivo; settings: male, mouse; for AUC(0-inf): read-out: Area under curve AUC0-∞; for half-life: read-out: Half-life T1/2(h) (converted)
Protocol: ICR mice, male, 29.0 g to 33.8g, purchased from Beijing Charles River Laboratory Animal Technology Co., Ltd.
Intravenous injection group: an appropriate amount of drug was weighed, and added with mixed solvent (DMA: 30% Solutol HS-15: Saline = 10: 10: 80 (v/v/v)) to prepare the drug with a final concentration of 0.2 mg/mL.
Oral gavage administration group: an appropriate amount of drug was weighed, added with an appropriate amount of sodium carboxymethyl cellulose (CMC-Na, containing 0.5% Tween 80), vortex shaked, and ultrasonically prepared into […] suspension.
For ICR mice, each compound to be tested was divided into an intravenous injection group (9 mice in each group) and an intragastric group (9 mice in each group). The ICR mice were fasted overnight and then administered by orbital intravenous injection (administration dose of 1 mg/kg, and administration volume of 5 mL/kg) and administered by intragastric injection (administration dose of 5 mg/kg, and administration volume of 10 mL/kg), and ate 4 hours after administration.
About 0.2 mL of blood was collected via jugular vein before administration and 0.083 hour, 0.25 hour, 0.5 hour, 1 hour, 2 hours, 4 hours, 8 hours, 12 hours and 24 hours after administration, and heparin sodium was used for anticoagulation. The collected blood samples were placed on ice, and plasma was separated by centrifugation (centrifugation condition: 1500 g, 10 minutes). The collected plasma was stored at-40°C to -20°C before analysis.
LC-MS/MS was used to determine the contents of different compounds to be tested in mouse plasma after intravenous injection and intragastric administration.
The pharmacokinetic parameters of the compounds of the present invention and the positive control can be seen in Table 8. Table 8 Results of pharmacokinetic parameters

[2] = intravenous, 1 mg/kg, injection

T4 sequence (P04629 33-796 G595R): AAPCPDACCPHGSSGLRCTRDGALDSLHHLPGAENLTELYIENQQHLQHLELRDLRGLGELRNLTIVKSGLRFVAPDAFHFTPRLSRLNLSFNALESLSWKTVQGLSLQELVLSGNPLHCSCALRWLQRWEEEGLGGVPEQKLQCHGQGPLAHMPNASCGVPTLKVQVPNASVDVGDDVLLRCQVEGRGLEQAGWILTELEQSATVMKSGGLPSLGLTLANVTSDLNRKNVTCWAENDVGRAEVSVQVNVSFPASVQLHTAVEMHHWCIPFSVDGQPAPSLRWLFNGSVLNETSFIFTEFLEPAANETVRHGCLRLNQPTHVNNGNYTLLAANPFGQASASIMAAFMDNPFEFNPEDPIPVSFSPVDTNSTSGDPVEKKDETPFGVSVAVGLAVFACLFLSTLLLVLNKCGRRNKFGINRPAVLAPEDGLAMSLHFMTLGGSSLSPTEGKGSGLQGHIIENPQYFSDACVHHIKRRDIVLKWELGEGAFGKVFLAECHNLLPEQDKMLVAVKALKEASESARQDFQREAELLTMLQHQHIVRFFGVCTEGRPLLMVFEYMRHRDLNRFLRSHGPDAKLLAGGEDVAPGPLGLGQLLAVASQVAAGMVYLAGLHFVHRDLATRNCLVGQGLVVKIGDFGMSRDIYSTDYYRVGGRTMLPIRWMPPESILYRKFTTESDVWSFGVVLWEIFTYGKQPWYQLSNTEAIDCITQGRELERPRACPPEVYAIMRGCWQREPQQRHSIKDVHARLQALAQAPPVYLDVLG
T3 sequence (P04629 33-796): as the sequence (P04629 33-796 G595R) above, with R563G counted along it
T1 sequence (Q16288 32-839): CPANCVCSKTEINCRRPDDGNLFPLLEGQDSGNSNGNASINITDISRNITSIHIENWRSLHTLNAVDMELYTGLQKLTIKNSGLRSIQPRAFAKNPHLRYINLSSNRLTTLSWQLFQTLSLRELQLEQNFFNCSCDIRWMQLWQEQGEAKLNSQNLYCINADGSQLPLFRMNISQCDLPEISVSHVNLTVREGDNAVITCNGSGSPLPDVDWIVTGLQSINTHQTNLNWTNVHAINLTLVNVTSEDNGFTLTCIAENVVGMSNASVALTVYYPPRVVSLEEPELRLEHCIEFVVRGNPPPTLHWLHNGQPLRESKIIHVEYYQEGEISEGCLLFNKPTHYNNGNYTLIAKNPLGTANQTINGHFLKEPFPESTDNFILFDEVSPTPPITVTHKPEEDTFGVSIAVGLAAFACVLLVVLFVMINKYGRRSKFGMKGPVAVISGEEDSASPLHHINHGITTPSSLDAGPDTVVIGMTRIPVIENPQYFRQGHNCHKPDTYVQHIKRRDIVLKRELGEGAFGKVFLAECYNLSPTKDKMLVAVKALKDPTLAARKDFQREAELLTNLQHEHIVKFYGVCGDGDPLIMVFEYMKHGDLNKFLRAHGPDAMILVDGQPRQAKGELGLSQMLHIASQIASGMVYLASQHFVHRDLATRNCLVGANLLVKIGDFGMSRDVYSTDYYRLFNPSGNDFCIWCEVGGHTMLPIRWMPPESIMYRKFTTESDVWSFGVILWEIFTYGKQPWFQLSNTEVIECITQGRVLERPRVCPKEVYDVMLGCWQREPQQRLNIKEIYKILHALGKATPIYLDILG
T2 sequence (Q16620 32-822): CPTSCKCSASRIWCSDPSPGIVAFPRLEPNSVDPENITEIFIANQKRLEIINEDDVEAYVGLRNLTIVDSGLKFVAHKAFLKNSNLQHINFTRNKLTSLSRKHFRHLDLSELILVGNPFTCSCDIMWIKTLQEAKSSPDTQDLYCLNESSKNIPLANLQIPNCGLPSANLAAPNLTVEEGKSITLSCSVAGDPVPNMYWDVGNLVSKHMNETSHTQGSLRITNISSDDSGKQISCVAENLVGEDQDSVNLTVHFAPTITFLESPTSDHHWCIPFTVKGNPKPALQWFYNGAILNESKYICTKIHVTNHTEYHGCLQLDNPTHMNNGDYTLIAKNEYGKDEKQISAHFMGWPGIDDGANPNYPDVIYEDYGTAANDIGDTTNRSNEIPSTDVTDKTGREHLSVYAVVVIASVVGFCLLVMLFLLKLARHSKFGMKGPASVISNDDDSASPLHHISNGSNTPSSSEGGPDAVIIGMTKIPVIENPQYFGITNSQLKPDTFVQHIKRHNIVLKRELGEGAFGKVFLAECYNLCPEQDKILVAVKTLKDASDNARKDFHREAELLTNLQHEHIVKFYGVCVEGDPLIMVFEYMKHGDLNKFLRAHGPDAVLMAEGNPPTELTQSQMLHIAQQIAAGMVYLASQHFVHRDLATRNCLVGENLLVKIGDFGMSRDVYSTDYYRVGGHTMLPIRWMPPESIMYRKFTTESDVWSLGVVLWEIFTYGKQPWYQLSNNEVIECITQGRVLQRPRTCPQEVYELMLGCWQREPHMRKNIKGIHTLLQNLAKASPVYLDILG
T5 sequence (P04629 33-796 G667C): as the sequence (P04629 33-796 G595R) above, with R563G, G635C counted along it

Row | SMILES | IC50 (TRKC) [nM] | IC50 (TRKB) [nM] | IC50 (TRKA) [nM] | IC50 (TRKA(G595R)) [nM] | further results
1 | C[C@H]1Nc2ccn3ncc(c3n2)C(=O)NC[C@]2(C)Cc3cc(F)c(F)c1c3O2 [Example 11, (3R,11S)-5,6-difluoro-3,11-dimethyl-10-oxa-2,13,1 7,18,21-pentaazapentacyclo[13.5.2.1^8,11.0^4,9.0^18,22]t ricosa-1(21),4,6,8,15(22),16,19-heptaen-14-one] | 0.63 | – | 4.5 | – | –
2 | C[C@H]1Nc2ccn3ncc(c3n2)C(=O)NCC2(CO)Cc3cc(F)cc1c3O2 (stereo partly drawn) [Example 19, (3R)-6-fluoro-11-(hydroxymethyl)-3-methyl-10-ox a-2,13,17,18,21-pentaazapentacyclo[13.5.2.1^8,11.0^4, 9.0^18,22]tricosa-1(21),4,6,8,15(22),16,19-heptaen-14-one] | 1.16 | 0.25 | 3.4 | 19.3 | –
3 | C[C@H]1Nc2ccn3ncc(c3n2)C(=O)NCC[C@@]2(C)Cc3cc(F)cc1c3O2 [Example 20, (3R,11R)-6-fluoro-3,11-dimethyl-10-oxa-2,14,18,1 9,22-pentaazapentacyclo[14.5.2.1^8,11.0^4,9.0^19,23]tetra cosa-1(22),4,6,8,16(23),17,20-heptaen-15-one] | – | – | 5.9 | – | IC50 (TRKA(G667C)): 4.2 nM
4 | C[C@H]1Nc2ccn3ncc(c3n2)C(=O)NCC[C@]2(C)Cc3cc(F)cc1c3O2 [Example 21, (3R,11S)-6-fluoro-3,11-dimethyl-10-oxa-2,14,18,1 9,22-pentaazapentacyclo[14.5.2.1^8,11.0^4,9.0^19,23]tetra cosa-1(22),4,6,8,16(23),17,20-heptaen-15-one] | – | – | 18.5 | – | IC50 (TRKA(G667C)): 24.6 nM
5 | C[C@H]1CNC(=O)c2cnn3ccc(nc23)N[C@H](C)c2cc(F)ccc2O1 [repotrectinib, reference compound] | – | – | – | – | bioavailability ([1]; 5 mg/kg oral intake vs 1 mg/kg injection, read-out: Bioavailability F(%)): 13%; AUC(0-inf) ([1]; 5 mg/kg, oral intake): 530 ng·h/mL; Cmax ([1]; 5 mg/kg, oral intake, read-out: Blood concentration Cmax): 154 ng/mL; half-life ([1]; 5 mg/kg, oral intake): 2.93 h; AUC(0-inf) [1, 2]: 824 ng·h/mL; clearance ([1]; intravenous, 1 mg/kg, injection, read-out: Clearance rate): 20.2 mL/min/kg; half-life [1, 2]: 3.9 h

The next lines start with results.

Row | IC50 (TRKC) [nM] | IC50 (TRKB) [nM] | IC50 (TRKA) [nM] | IC50 (TRKA(G595R)) [nM] | SMILES | further results
6 | 0.5 | 0.29 | 1.66 | 11.3 | C[C@H]1Nc2ccn3ncc(c3n2)C(=O)NCC2Cc3cc(F)cc1c3O2 (stereo partly drawn) [Example 1, (3R)-6-fluoro-3-methyl-10-oxa-2,13,17,18,21-pent aazapentacyclo[13.5.2.1^8,11.0^4,9.0^18,22]tricosa-1(21), 4,6,8, 15(22),16, 19-heptaen-14-one] | –
7 | 0.47 | 0.33 | 1.7 | 3.31 | C[C@H]1Nc2ccn3ncc(c3n2)C(=O)NCC[C@H]2Cc3cc(F)cc1c3O2 [Example 3, (3R,11R)-6-fluoro-3-methyl-10-oxa-2,14,18,19,22-pentaazapentacyclo[14.5.2.1^8,11.0^4,9.0^19,23]tetracosa-1(22),4,6,8,16(23),17,20-heptaen-15-one] | –
8 | – | 0.34 | 1.05 | 11.3 | C[C@H]1Nc2ccn3ncc(c3n2)C(=O)NCCC2=Cc3cc(F)cc1c3O2 [Example 6, (3R)-6-fluoro-3-methyl-10-oxa-2,14,18,19,22-pent aazapentacyclo[14.5.2.1^8,11.0^4,9.0^19,23]tetracosa-1(2 2),4,6,8,11(24),16(23),17,20-octaen-15-one] | –
9 | 0.37 | – | 2.8 | – | COC[C@@]12CNC(=O)c3cnn4ccc(nc34)N[C@H](C)c3cc(F)cc(c3O1)C2 [Example 15, (3R,11R)-6-fluoro-11-(methoxymethyl)-3-methyl-10-oxa-2,13,17,18,21-pentaazapentacyclo[13.5.2.1 ^8,11.0^4,9.0^18,22]tricosa-1(21),4,6,8,15(22),16,19-hept aen-14-one] | –
10 | – | – | 4.83 | 15.3 | C[C@H]1Nc2ccn3ncc(c3n2)C(=O)NC[C@]2(C)COc3cc(F)cc1c3O2 [Example 23, (2R,14R)-19-fluoro-2,14-dimethyl-16,22-dioxa-3,5 ,7,8,12-pentaazapentacyclo[12.6.2.2^4,7.0^6,10.0^17,21]te tracosa-1(20),4,6(10),8,17(21),18,23-heptaen-11-one] | –
